Where a SMILES comes first, the peptide text is derived from it. Bridges are numbered along the chain shown (N, C = ends). [ ]: non-standard residue; d: D form. NMeS = CN[C@@H](CO)C(=O)O; NMeA = CN[C@@H](C)C(=O)O; Sar = CNCC(=O)O
T1: human NTCP (Homo sapiens, UniProt Q14973)
T1 construct: made in house; host or cells: wheat germ cell-free protein synthesis system
T1 sequence (Q14973 1-349): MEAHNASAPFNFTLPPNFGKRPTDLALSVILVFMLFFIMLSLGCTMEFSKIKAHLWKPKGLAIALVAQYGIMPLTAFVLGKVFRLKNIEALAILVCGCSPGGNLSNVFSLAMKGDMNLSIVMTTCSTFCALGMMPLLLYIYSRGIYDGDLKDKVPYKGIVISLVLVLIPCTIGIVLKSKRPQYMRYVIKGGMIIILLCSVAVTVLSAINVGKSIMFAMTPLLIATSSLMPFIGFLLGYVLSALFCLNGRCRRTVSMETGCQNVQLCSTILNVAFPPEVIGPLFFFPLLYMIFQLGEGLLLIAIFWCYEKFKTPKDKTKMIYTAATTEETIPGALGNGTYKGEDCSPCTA

T2: human NTCP on cells (HepG2-hNTCP-C4 cells overexpressing the human NTCP gene; primary human hepatocytes) (human), Q14973
T2 chain: T1 sequence (Q14973 1-349)

T3: His-tagged recombinant NTCP protein (human sodium taurocholate cotransporting polypeptide) (human), Q14973
T3 chain: T1 sequence (Q14973 1-349)


Legend:
human NTCP = target: T1, human NTCP; assay: Surface plasmon resonance binding to immobilized recombinant NTCP; conditions: Kd, single-cycle kinetics, 1:1 binding model, NTCP immobilized on NTA-Ni2+
Method: (§1) FIG. 7 is a diagram showing the NTCP association constant of a peptide identified by first RaPID screening. A single-cycle reaction kinetics experiment was conducted using NTCP immobilized on surface (NTA-Ni^2+) involving varying concentrations of a cyclic peptide analyte. In each case, as shown in the drawing, the peptide was tested with 4-fold serial dilutions starting from the highest concentration of 200 or 1000 nM. A dissociation constant (KD) was determined using a 1:1 binding model.
as §1, with “9” for “7”, “focused library” for “first”, “association constant” for “reaction kinetics”
The association constant of each peptide for human NTCP was measured using a Biacore T200 apparatus (GE Healthcare Japan Corp.). The running buffer solution used was HBS-P+ (10 mM HEPES, 150 mM NaCl, and 0.05 vol % surfactant P20, pH 7.4) containing 0.1 vol % DMSO and 1 mM β-dodecyl-maltoside. 100 nM recombinant NTCP was immobilized on a NTA chip treated with Ni^2+ according to the manufacturer's instructions (baseline response: 1000 to 3000 refraction units). Peptides were injected as analytes at a flow rate of 60 μL/min, and association constants were modelled using a 1:1 binding model.

HBV genotype D = format: cell-based, hepatitis B virus; conditions: primary human hepatocytes, peptide at 100 μM, 12 days after inoculation
Method: FIG. 2 is a diagram showing the anti-HBV effect of a peptide from initial screening. FIG. 2(a) is a schematic diagram of a HepG2-hNTCP-C4 infection experiment. HepG2-hNTCP-C4 cells were pretreated with a peptide for 2 hours and subsequently inoculated with HBV for 16 hours in the presence of the peptide. Free HBV and peptide were washed off. Then, the cells were further cultured for 12 days in the absence of the peptide, and HBV infection was evaluated on the basis of measurement of HBs antigen in the culture supernatant. The filled boxes and the broken-line boxes depict periods for which the treatment was performed and periods for which the treatment was not performed, respectively. […] HBV infection was evaluated by monitoring HBs antigen secreted into a culture supernatant on 12 days after inoculation by ELISA. In FIG. 2(c), a cell survival rate was measured by MTT assay.
FIG. 3 is a diagram showing the anti-HBV effect of a peptide by focused library screening. […] HBV infection was evaluated by measurement of HBe antigen (a), and a cell survival rate (b) was evaluated by MTT assay as shown in FIG. 2.
HBV genotype D used in this study (FIGS. 1 to 3) was derived from the culture supernatant of Hep38.7-Tet cells, and prepared by a known method (the method described in Tsukuda, S. et al. Dysregulation of retinoic acid receptor diminishes hepatocyte permissiveness to hepatitis B virus infection through modulation of sodium taurocholate cotransporting polypeptide (NTCP) expression. The Journal of biological chemistry 290, 5673-5684 (2015), and Ogura, N., Watashi, K., Noguchi, T. & Wakita, T. Formation of covalently closed circular DNA in Hep38.7-Tet cells, a tetracycline inducible hepatitis B virus expression cell line. Biochemical and biophysical research communications 452, 315-321 (2014)). Purified HBV (FIG. 1(d)) was prepared by ultrafiltration to remove an excess of components in FBS and medium. HBV genotypes A, B, and C and genotype C having the L180M/S202G/M204V mutations (nucleoside analog-resistant HBV) or G145R substitution (vaccine-escape HBV) (FIG. 4(d)) were prepared from the culture supernatant of HepG2 cells transfected with the corresponding expression plasmid. HBV was inoculated at 12,000 (FIGS. 1(a), 1(b), and 1(d)), 1000 to 2000 (FIG. 2(b)) or 500 (FIGS. 3(a) and 4(d)) genome equivalents (GEq)/cell in the presence of 4% polyethylene glycol 8000 (PEG8000) and incubated at 37° C. for 16 hours by a known method (the method described in Watashi, K. et al. Interleukin-1 and tumor necrosis factor-alpha trigger restriction of hepatitis B virus infection via a cytidine deaminase activation-induced cytidine deaminase (AID). The Journal of biological chemistry 288, 31715-31727 (2013)).
HBe antigen was detected by a chemiluminescence immunoassay (CLIA) (LSI Medience Corp.). HBs antigen was quantified by enzyme-linked immunosorbent assay (ELISA) as described in a known method (the method described in Watashi, K. et al. Interleukin-1 and tumor necrosis factor-alpha trigger restriction of hepatitis B virus infection via a cytidine deaminase activation-induced cytidine deaminase (AID). The Journal of biological chemistry 288, 31715-31727 (2013)).
Subsequently, the present inventors evaluated the effect of the 10 peptides described above on HBV infection in primary human hepatocytes. […] HBV infection was evaluated by measuring HBs antigen in the culture supernatant. […]

[1] = target: T2, human NTCP on cells (HepG2-hNTCP-C4 …); assay: cell-based or functional assay
[2] = target: T3, His-tagged recombinant NTCP protein …; assay: SPR (Biacore T200), single-cycle kinetics, His-NTCP on Ni2+-NTA chip, peptide as analyte, 1:1 model

Molecule | Kd (human NTCP) [nM] | HBs antigen in the culture supernatant (HBV genotype D) | 50% inhibitory concentration (IC50), HBs antigen in culture supernatant, HBV infection assay [1] [µM] | Kd [2] [nM]
CC[C@H](C)[C@@H]1NC(=O)[C@H](C)NC(=O)[C@H](Cc2c[nH]c3ccccc23)NC(=O)[C@H](Cc2c[nH]c3ccccc23)NC(=O)[C@@H](Cc2ccc(O)cc2)NC(=O)CSC[C@@H](C(=O)NCC(N)=O)NC(=O)[C@@H]2CCCN2C(=O)[C@H](Cc2c[nH]c3ccccc23)NC(=O)[C@H]([C@@H](C)O)NC(=O)[C@H](Cc2ccccc2)NC(=O)[C@H](C(C)C)NC(=O)[C@H](Cc2c[nH]cn2)NC(=O)[C@H]([C@@H](C)CC)NC(=O)[C@H](Cc2c[nH]cn2)NC(=O)[C@@H]2CCCN2C(=O)[C@H](CC(N)=O)NC1=O [D2] ({CH2CO}-[dY]WWAINPHIHVFTWPCG-NH2; thioether N-16) | 14 | most active |  | 
CC[C@H](C)[C@@H]1NC(=O)[C@@H](Cc2ccc(O)cc2)NC(=O)CSC[C@@H](C(=O)NCC(N)=O)NC(=O)[C@H](CO)NC(=O)[C@H](Cc2ccc(O)cc2)NC(=O)[C@H](CC(C)C)NC(=O)[C@H](CC(C)C)NC(=O)[C@H](Cc2ccccc2)NC(=O)[C@H](CC(C)C)NC(=O)[C@H](Cc2c[nH]cn2)NC(=O)[C@H](CC(C)C)NC(=O)[C@H](CCC(=O)O)NC(=O)[C@@H]2CCCN2C(=O)[C@H](Cc2ccc(O)cc2)NC(=O)[C@H](C(C)C)NC(=O)[C@H](CC(C)C)NC1=O [D4] ({CH2CO}-[dY]ILVYPELHLFLLYSCG-NH2; thioether N-16) | 2270 | most active |  | 
CC[C@H](C)[C@@H]1NC(=O)[C@H](Cc2c[nH]c3ccccc23)NC(=O)[C@H]([C@@H](C)O)NC(=O)[C@@H](Cc2ccc(O)cc2)NC(=O)CSC[C@@H](C(=O)N[C@H](C(N)=O)[C@@H](C)O)NC(=O)[C@@H]2CCCN2C(=O)[C@H](Cc2ccccc2)NC(=O)[C@H](Cc2ccc(O)cc2)NC(=O)[C@H](C(C)C)NC(=O)[C@H](C(C)C)NC(=O)[C@H](Cc2ccc(O)cc2)NC(=O)[C@H](CC(C)C)NC(=O)CN(C)C(=O)CN(C)C(=O)[C@H](Cc2c[nH]c3ccccc23)NC1=O [WD2] ({CH2CO}-[dY]TWIW[Sar][Sar]LYVVYFPCT-NH2; thioether N-15) | 14 |  |  | 
CC[C@H](C)[C@@H]1NC(=O)[C@H](Cc2c[nH]c3ccccc23)NC(=O)[C@H]([C@@H](C)CC)NC(=O)[C@H](CCC(N)=O)NC(=O)[C@H](C)N(C)C(=O)[C@H](Cc2ccc(O)cc2)NC(=O)[C@H]([C@@H](C)O)NC(=O)[C@H](Cc2ccccc2)NC(=O)[C@H]([C@@H](C)O)NC(=O)[C@@H](Cc2ccc(O)cc2)NC(=O)CSC[C@@H](C(=O)N[C@H](C(N)=O)[C@@H](C)O)NC(=O)CN(C)C(=O)[C@H](Cc2ccc(O)cc2)NC(=O)[C@H](Cc2ccc(O)cc2)NC(=O)[C@H](Cc2c[nH]c3ccccc23)NC1=O [WD4] ({CH2CO}-[dY]TFTY[NMeA]QIWIWYY[Sar]CT-NH2; thioether N-15) | 11 |  |  | 
CC[C@H](C)[C@@H]1NC(=O)CN(C)C(=O)[C@H](CO)NC(=O)[C@H](Cc2ccc(O)cc2)NC(=O)[C@H](CCCCN)NC(=O)[C@H](Cc2ccc(O)cc2)NC(=O)[C@H]([C@@H](C)O)NC(=O)[C@H](Cc2ccc(O)cc2)NC(=O)CSC[C@@H](C(=O)N[C@H](C(N)=O)[C@@H](C)O)NC(=O)[C@H](Cc2c[nH]c3ccccc23)NC(=O)[C@H]([C@@H](C)CC)NC(=O)[C@H](Cc2c[nH]c3ccccc23)NC(=O)[C@H]([C@@H](C)CC)NC(=O)[C@H](Cc2c[nH]c3ccccc23)NC1=O [WL1] ({CH2CO}-YTYKYS[Sar]IWIWIWCT-NH2; thioether N-14) | 360 |  |  | 
CC(C)C[C@@H]1NC(=O)[C@H](Cc2ccc(O)cc2)NC(=O)[C@H](C)NC(=O)[C@H](CO)N(C)C(=O)[C@H](Cc2c[nH]cn2)NC(=O)[C@H](Cc2c[nH]c3ccccc23)NC(=O)[C@H]([C@@H](C)O)NC(=O)[C@H](Cc2c[nH]c3ccccc23)NC(=O)[C@H]([C@@H](C)O)NC(=O)[C@H](Cc2ccc(O)cc2)NC(=O)CSC[C@@H](C(=O)N[C@H](C(N)=O)[C@@H](C)O)NC(=O)[C@H](Cc2ccccc2)NC(=O)[C@H](C(C)C)NC(=O)[C@H](Cc2ccc(O)cc2)NC1=O [WL3] ({CH2CO}-YTWTWH[NMeS]AYLYVFCT-NH2; thioether N-14) | 57 |  |  | 
CC[C@H](C)[C@@H]1NC(=O)[C@H](Cc2c[nH]c3ccccc23)NC(=O)[C@H]([C@@H](C)CC)NC(=O)[C@H](Cc2ccccc2)NC(=O)[C@H](CO)NC(=O)[C@H](CC(N)=O)NC(=O)[C@H](CCC(N)=O)NC(=O)[C@H](Cc2c[nH]c3ccccc23)NC(=O)[C@H]([C@@H](C)O)NC(=O)[C@H](Cc2c[nH]c3ccccc23)NC(=O)[C@H]([C@@H](C)O)NC(=O)[C@H](Cc2ccc(O)cc2)NC(=O)CSC[C@@H](C(=O)N[C@H](C(N)=O)[C@@H](C)O)NC(=O)[C@H](Cc2ccc(O)cc2)NC1=O [WL5] ({CH2CO}-YTWTWQNSFIWIYCT-NH2; thioether N-14) | 10 |  |  | 
CC(C)C[C@@H]1NC(=O)[C@H](Cc2ccccc2)NC(=O)[C@H](C)NC(=O)[C@H](CO)N(C)C(=O)[C@H](CC(N)=O)NC(=O)[C@H](Cc2c[nH]c3ccccc23)NC(=O)[C@H]([C@@H](C)O)NC(=O)[C@H](Cc2c[nH]c3ccccc23)NC(=O)[C@H]([C@@H](C)O)NC(=O)[C@H](Cc2ccc(O)cc2)NC(=O)CSC[C@@H](C(=O)N[C@H](C(N)=O)[C@@H](C)O)NC(=O)[C@H](Cc2ccc(O)cc2)NC(=O)[C@H](C(C)C)NC(=O)[C@H](Cc2ccc(O)cc2)NC1=O [WL6] ({CH2CO}-YTWTWN[NMeS]AFLYVYCT-NH2; thioether N-14) | 36 |  |  | 
YIWIWPGYVIYCT (modifications not checked) [WL2] |  |  | 2.54 | 157
YFIIVGTWTWTWSCT (modifications not checked) [WD1] |  |  | 0.85 | 15
